# What was measured:
# Type in all cases: cell-based, human
# [1] = test system: HepG2 cells; assay: Fluorescent LDL uptake by HepG2 cells; settings: mean ± SD
# Experimental: HepG2 cells (3 × 10^4/well) were seeded in 96-well plates and kept in complete growth medium for 2 days before treatment. The third day, cells were washed with PBS and then starved overnight (O/N) in DMEM without FBS and antibiotics. After starvation, they were treated with 4.0 μg/mL PCSK9 and 4.0 μg/mL PCSK9 + P5 and P5-met peptides (50.0 µM), and vehicle (H2O) for 2 h with at 37 °C under 5% CO2 atmosphere. At the end of the treatment, the culture medium was replaced with 50 μL/well LDL-DyLight™ 550 working solution (Cayman Chemical Company, Ann Arbor, MI, USA) prepared in DMEM without FBS and antibiotics. The cells were additionally incubated for 2 h at 37 °C and then the culture medium was aspirated and replaced with PBS (100 μL/well). The degree of LDL uptake was measured using the Synergy H1 fluorescent plate reader (Winooski, VT, USA) (excitation and emission wavelengths 540 and 570 nm, respectively). Fluorescent LDL-uptake was finally assessed following optimized protocol.
# [2] = test system: PCSK9; assay: Western blot, PCSK9 protein level in HepG2 cells; settings: HepG2, 50 µM, 24 h, mean ± SD
# Experimental: (§1) The HepG2 cell line was bought from ATCC (HB-8065, ATCC from LGC Standards, Milan, Italy) and was cultured in DMEM high glucose with stable L-glutamine, supplemented with 10% FBS, 100 U/mL penicillin, 100 µg/mL streptomycin (complete growth medium) with incubation at 37 °C under 5% CO2 atmosphere.
# (§2) Immunoblotting experiments were performed using optimized protocol. A total of 1.5 × 10^5 HepG2 cells/well (24-well plate) were treated with 50 μM of P5 and P5-met for 24 h. After each treatment, the supernatants were collected and stored at −20°C; cells were scraped in 40 µL ice-cold lysis buffer (RIPA buffer + inhibitor cocktail + 1:100 PMSF + 1:100 Na-orthovanadate + 1:1000 β-mercaptoethanol) and transferred in ice-cold microcentrifuge tubes. […] Total proteins were quantified by the Bradford’s method and 50 μg of total proteins loaded on a pre-cast 7.5% Sodium Dodecyl Sulfate-Polyacrylamide (SDS-PAGE) gel at 130 V for 45 min. […] Target proteins, on milk or BSA blocked membrane, were detected by primary antibodies as follows: anti-SREBP-2, anti-LDLR, anti-HMGCoAR, anti-PCSK9, anti HNF1-α and anti-β-actin. Secondary antibodies conjugated with HRP and a chemiluminescent reagent were used to visualize target proteins and their signal was quantified using the Image Lab Software (Biorad, Hercules, CA, USA). […]
# [3] = test system: HNF-1α; assay: Western blot, HNF-1α protein level in HepG2 cells; settings: HepG2, 50 µM, 24 h, mean ± SD
# Experimental: as §1, §2
# [4] = test system: HMGCoAR; assay: Western blot, HMGCoAR protein level in HepG2 cells; settings: HepG2, 50 µM, 24 h, mean ± SD
# Experimental: as §1, §2
substance,measurement,setting,value
H-LPKHSDAD-OH [Peptide P5-met],Ability of HepG2 cells to absorb extracellular LDL versus the control,"[1]; HepG2, 50 µM, fluorescent LDL-DyLight 550, without added PCSK9",181.2 ± 40.1%
same,"LDL uptake by HepG2 cells restored, co-incubation with PCSK9","[1]; peptide 50 µM + PCSK9 4 µg/mL, 2 h, % of untreated cells",104.1 ± 8.5%
same,Decrease of PCSK9 protein level,[2],29 ± 8.1%
same,Decrease of HNF-1α protein,[3],10.8 ± 3.5%
same,HMGCoAR protein level versus the control,[4],117.9 ± 12.1%

# Reference: PMC8000724, “Trans-Epithelial Transport, Metabolism, and Biological Activity Assessment of the Multi-Target Lupin Peptide [sequence] (P5) and Its Metabolite [sequence] (P5-Met)” (Nutrients, 2021)
